Results published in patent US5852191A, “Rigidized monomethine cyanines” (Carnegie Mellon University, priority 1995, dated 1998).

Columns and labels:
Assay type in all cases: physicochemical
[1] = Absorption/emission spectra and molar extinction coefficients of the compounds of Examples A and B in solvents (Table 3)
Text: (§1) The observed absorption maxima, molar extinction coefficients, emission maxima and qualitative solubility data for the boron-rigidized complexes of Examples A and B are provided in Table 3.

[2] = Qualitative solubility of the compounds of Examples A and B (Table 3); details: applies to either dye compound
Text: as §1

[3] = Relative fluorescence intensities of the compounds of Examples A and B in a variety of solvents (Table 4)
Text: See M. T. Ramos et al., Heterocycles, Vol. 29, p. 165 (1989).

[4] = Resistance to photodegradation (500 watt mercury vapor lamp; optical density monitored)
Text: The resistance to photodegradation of the compounds of Examples A and B in methanol and dichloromethane was also investigated and was compared with photofading rates of certain Coumarin dyes. A degassed solution of each dye in a quartz cuvette was illuminated with a 500 watt mercury vapor lamp from a distance of 4 inches. The solution optical density at maximum wavelength was monitored as a function of time.

[5] = Relative fluorescence of boron-rigidized vs unrigidized dye in methanol (FIG. 2); details: excited at 348 nm, vs bis-benzoxazolylmethene hydrochloride
Text: The present inventors have determined that the rigidization of the basic monomethine cyanine structure increase the quantum efficiency of the dye molecules as much as 5 to 20 times. Thus, the boron-rigidized dyes of the present invention are unusually fluorescent compared with nonrigidized cyanine dye molecules. The present invention thus provides a method for increasing the fluorescence of dyes by rigidizing monomethine cyanine compounds with a boron bridge. Rigidization increase the planarity of the compound, and the fluorescence intensity.

F[B-]1(F)N2C(=Cc3oc4ccccc4[n+]31)Oc1ccccc12 [Example B, Bis-benzoxazolylmethene Borondifluoride]
Logarithm of the Extinction coefficient ([1]; Acetonitrile): 4.72 M^-1 cm^-1 | Max. absorption wavelength ([1]; Acetonitrile): 358 nm | Max. emission wavelength ([1]; Acetonitrile): 385 nm | Logarithm of the Extinction coefficient ([1]; Chloroform): 4.72 M^-1 cm^-1 | Max. absorption wavelength ([1]; Chloroform): 360 nm | Max. emission wavelength ([1]; Chloroform): 386 nm | Max. absorption wavelength ([1]; Ethanol): 358 nm | Max. emission wavelength ([1]; Ethanol): 386 nm | Logarithm of the Extinction coefficient ([1]; Ethyl Acetate): 4.74 M^-1 cm^-1 | Max. absorption wavelength ([1]; Ethyl Acetate): 358 nm | Max. emission wavelength ([1]; Ethyl Acetate): 383 nm | Shape of emission spectrum relative to absorption spectrum ([1]; FIG. 3 and FIG. 4): appears to be much broader | Max. absorption wavelength ([1]; Methanol): 358 nm | Max. emission wavelength ([1]; Methanol): 385 nm | Logarithm of the Extinction coefficient ([1]; Toluene): 4.74 M^-1 cm^-1 | Max. absorption wavelength ([1]; Toluene): 360 nm | Max. emission wavelength ([1]; Toluene): 392 nm | Stokes shift ([1]; solvents of Table 3): 28 nm | Solubility data (qualitative) ([2]; Acetonitrile): sol. | Solubility data (qualitative) ([2]; Chloroform): sol. | Solubility data (qualitative) ([2]; Ethanol): sparingly | Solubility data (qualitative) ([2]; Ethyl Acetate): sol. | Solubility data (qualitative) ([2]; Methanol): sparingly | Solubility data (qualitative) ([2]; Toluene): sol. | Relative fluorescence intensity ([3]; Acetonitrile): 1.39 | Relative fluorescence intensity ([3]; Chloroform): 1.27 | Relative fluorescence intensity ([3]; Ethanol): 1.33 | Relative fluorescence intensity ([3]; Ethyl Acetate): 1.20 | Relative fluorescence intensity ([3]; Methanol): 1.35 | Relative fluorescence intensity ([3]; Toluene): 1.42 | Red shift at the maximum wavelength ([4]; dichloromethane): approximately 12 nm | Resistance to photofading compared with the Coumarin dyes ([4]; dichloromethane): more resistant to photofading than the Coumarin dyes | Photofading rate compared with the corresponding Coumarin compound ([4]; methanol, 500 watt mercury vapor lamp): faded at a similar rate | Quantum yield compared with the unrigidized dye [5]: several fold greater than the unrigidized dye
